Experimental data: patent publication US20100325754A1, “Compositions and methods for modulating oxidative burst in plant transformation” (Syngenta Participations AG, priority 2009, published 2010)

Experiments:
[1] = tested on: MicroTom tomato cotyledon explants; test: Frequency of independent stable transgenic events and escapes in Agrobacterium-mediated MicroTom transformation (GUS staining)
Protocol: Sterilize MicroTom tomato seeds: (2.1 grams (g) of MicroTom tomato seeds, which equals approximately 900 seeds; supplied by Ball Horticultural Company, Chicago, Ill., USA. • add approximately 900 seeds to a sterile 250 milliliter (ml) flask • soak for 10 minutes (min) in the sterile 250 ml flask with ˜100 ml sterile double deionized (dd) water and then pour off the water. • add 100 ml of 70% ethanol to immerse the seeds for 1 min while stirring vigorously, pour off the ethanol, rinse the seeds 2 times with sterile dd water. • soak the seeds in 100 ml of 25% Chlorine bleach solution (chlorine bleach available under the registered trademark CLOROX®) with 3 drops of TWEEN™ 20 detergent for 10 min while stirring frequently, rinse the seeds three times with sterile dd water. • the seeds are germinated in MAGENTA™ box (available from bio-WORLD, Dublin, Ohio, United States of America) or culture box containing TGM medium (approximately 70 seeds/container), and the MAGENTA™ boxes are placed in a plastic box that is wiped down with 70% ethanol. The box cultures are placed in a dark incubator at 27° C. under the dark for 6 days (d). Seeds are distributed evenly and closely in the MAGENTA™ box, and pressed down on the media surface when placing the seeds on the germination medium.
Construct Information: The construct used in transformation contains a CaMV 35S promoter driving GUS (with GUS intron) and Nos promoter driving NPTII in Bin 19 binary vector (Frisch et al., 1995, Plant Molecular Biology 27:405-409). Agrobacterium tumefaciens strain EHA101 is used for transformation.
150 microliters (μl) of Vector 1 glycerol stock from −80° C. are placed on a fresh Luria Broth (LB)/rifampicin 50 microgram (μg)/ml/kanamycin 50 μg/ml plate on Friday of the week before transformation experiment, grown at about 28° C. for 3-4 d and stored in the refrigerator (4° C.) for the rest of the week. One day before inoculation, between 1:00 to 2:00 pm, a loopful of the bacterium cells from the freshly streaked plate is inoculated into 2 ml of liquid LB/rifampicin 50 μg/ml/kanamycin 50 μg/ml in a 17×100 Falcon tube, and grown at 28 C.° with 230 revolutions per minute (rpm) shaking. The next morning between 8:00 to 9:00 am, 0.2 ml of the overnight bacterium culture is inoculated into 2 ml of plain LB+0.2 millimeter (mM) acetosyringone in a 17×100 mm Falcon tube, and grown at about 28° C. with 230 rpm for 4 h.
Day 7 at about 2:00 pm. • 1) Cotyledon explants are isolated from seedlings 6 d after sowing seeds on TGM medium. • 2) About 25 cotyledon explants are prepared at a time by bathing them in a sterile petri dish plate containing 6 ml of Fillatti's suspension medium (FSM) liquid medium to prevent desiccation and trimming them at both ends using a #15 feather blade. Note: it is desirable to use the cotyledons that make a fairly tight “V” shape (two cotyledons that are at closed shape are acceptable to be used). • 3) Immediately after the trimming, the 25 cotyledon explants are gently placed on “feeder plates”—TCM medium. The “feeder plates” are made by overlaying 2 ml of tobacco suspension cells and a sterile WHATMAN™ filter (No. 1, Cat No. 1001090, VWR; Whatman Inc., Florham Park, N.J., United States of America) on the plates containing TCM medium. • 4) Cotyledon explants are gently poked with a sharp forceps and usually six pokes are made per explant. It is desirable that the sharp forceps gently touch the surface of explants and then make a slight movement on the touched surface in order to have a larger and shallower wounding surface that results in good transient expression. • 5) Right after poking, the cotyledons are inoculated with Agrobacterium by adding 3 ml of the Agrobacterium solution (OD600=0.1) suspended in FSM liquid medium to the top of cotyledons. The plates are incubated for 10 min at room temperature and the Agrobacterium solution is aspirated with a sterile pipette.

[2] = tested on: MicroTom tomato cotyledons; test: Tissue extreme browning of MicroTom tomato cotyledon explants after Agrobacterium inoculation; assay type: cell-based, Solanum lycopersicum (tomato); details: for Extreme Browning Rate: 3 days after selection
Text: For tissue browning and transient expression data collection, 3 d after selection cotyledon explant data are collected for tissue browning under a dissecting microscope, and then for transient expression by GUS staining.

[3] = tested on: soybean immature seed explants; test: Soybean transformation frequency (TAQMAN positive plants); assay type: cell-based, Soybean (Glycine max, Jack); details: transgenic plants after rooting
rice calli (Nipponbare) = test: Rice stable callus transformation efficiency; assay type: cell-based; details: co-cultivation and recovery media
Protocol: • 1. […] Check for any off-type seeds and discard these. • 2. Surface sterilize seeds in a 50 ml sterile tube with 70% ethanol for 1 to 2 min with shaking (ethanol treatment step is optional). • 3. Remove ethanol. • 4. Add 50% (v/v) CLOROX® bleach (2.4% Na hypochlorite) or 40% (v/v) ULTRA CLOROX® (˜3.2% Na hypochlorite) and one drop of TWEEN™-20 detergent, shake for 30-40 min on a shaker at 100-200 rpm. • 5. Remove CLOROX® solution and rinse with sterile water at least three times, until all sign of TWEEN™-20 detergent (soap bubbles) is gone. • 6. Seeds are ready to plate on sterile medium. • 7. Check for bacterial and fungal contaminations at 3 and 5 days later, respectively.
• 1. Soak sterilized seeds in sterile water for 1-2 d until fully imbibed (optional step) • 2. Plate pre-soaked or sterilized mature seeds onto rice callus induction medium (MS-CIM) at 12 seeds per plate. Culture in dark at 28° C. for 6 d prior to inoculation or for 4 weeks (wks) for production of embryogenic cultures. • 3. At 4 wks, selectively excise high quality target material and transfer to MS-CIM at 25 pieces per plate. Culture in dark for 8 d at 28° C. before inoculation.
• 1. If possible, choose bacteria from the area of the plate where there are many individual single colonies of bacteria growing for inoculation. Transfer ˜7 inoculation loops full of Agrobacterium culture to a 50 ml sterile plastic tube containing 20 ml liquid MS media with acetosyringone (As) added to 200 μM (add 1 μl As stock at 40 mg/ml per ml of suspension). Vortex to completely dissolve bacteria in liquid and bring volume to 50 ml. • 2. Measure the Agrobacterium suspension OD at 660 nm. Dilute the culture to an OD660 of 0.2-0.3 (higher concentrations can offer higher transformation frequencies but can cause damage/browning in some cultivars). Induce the bacteria with acetosyringone for at least 30 min. • 3. Inoculate cultured rice seeds or rice embryogenic culture responses by immersing target material in the bacterial suspension for 30 min. • 4. Try to make sure that all target pieces are completely immersed in the bacterial solution and shake regularly to ensure that this continues to be the case. • 5.
Transfer the inoculated seeds/cultures to multiple shoot-acetosyringone (MS-As) co-cultivation medium with sterile 85 mm filter paper. Each filter paper is wetted with 1 ml of MSInoc (see recipe below) liquid media with the concentrations of MT (in μM) listed below. Fifty (50) pieces per plate; incubate at 22° C. for 3 d. • A: Filter Paper • B: Filter Paper 2MT • C: Filter Paper 10MT • D: Filter Paper 100MT • E: Filter Paper 300MT • F: Filter Paper 1000MT
• 1. After ˜36 hours of co-cultivation, transfer the co-cultivated seeds/responses to Agrobacterium inhibition medium MS-400Tim (see recipe below) (1 plate→1 plate). Culture in the dark at 28° C. for ˜7 days. • 2. Score the scorable marker control plate for gene delivery efficiency at 4 to 5 days after co-cultivation • A: Recovery Media • B: Recovery Media+2MT • C: Recovery Media+10MT • D: Recovery Media+100MT • E: Recovery Media+300MT • F: Recovery Media+1000MT
• 1. Transfer calli to selection medium (17.5 g/l mannose/5 g/l sucrose). Culture in dark at ˜28° C. for 2 to 3 weeks, observing periodically for colony proliferation and contamination. • 2. Select mannose resistant embryogenic micro-colonies under microscope when proliferating colonies are big enough to grow independently, but not so big that they have begun to grow together. […]

[4] = N-t-butyl hydroxylamine 10 μM, 4 weeks after selection
[5] = N-t-butyl hydroxylamine 50 μM, 4 weeks after selection
[6] = N-t-butyl hydroxylamine 100 μM, 4 weeks after selection
[7] = epicatechin 50 mg/l, 6 weeks after selection
[8] = epicatechin 100 mg/l, 6 weeks after selection
[9] = epicatechin 1000 mg/l, 6 weeks after selection
[10] = resveratrol 50 μM, 6 weeks after selection
[11] = resveratrol 100 μM, 6 weeks after selection
[12] = resveratrol 200 μM, 6 weeks after selection

With `CC(C)(C)NO` [N-t-butyl hydroxylamine] the “reduction of frequency of escapes compared with the negative control” value ([1]; N-t-butyl hydroxylamine 10 μM) was 2.5 fold, the Frequency of escapes [1, 4] was 4.4 ± 5.1% and the “Frequency of independent stable transgenic events” value [1, 4] was 245.6 ± 44.0 A %. The Frequency of escapes [1, 5] was 6.7 ± 3.3%, the “Frequency of independent stable transgenic events” value [1, 5] was 222.2 ± 9.6 AB % and the Frequency of escapes [1, 6] was 8.9 ± 1.9%. For the same compound, the “Frequency of independent stable transgenic events” value [1, 6] was 205.6 ± 10.2 AB %.

With `COc1ccc2[nH]cc(CCNC(C)=O)c2c1` [melatonin, N-Acetyl-5-methoxytryptamine] the “Extreme Browning Rate” value ([2]; 10 μM melatonin in selection stage media, percentage of pokes with browning area ≧70%, Table 3) was 21.5%, the “tissue browning reduced, compared to the negative control” value (“tissue browning reduced” for short) ([2]; 10 μM melatonin in transformation media) was 3.0 fold and the “Extreme Browning Rate” value ([2]; 50 μM melatonin in selection stage media, Table 3) was 11.8%. For the same compound, the “tissue browning reduced” value ([2]; 50 μM melatonin in transformation media) was 5.5 fold, the “Extreme Browning Rate” value ([2]; 100 μM melatonin in selection stage media, Table 3 (first set)) was 6.4% and the “tissue browning reduced” value ([2]; 100 μM melatonin in transformation media) was 10.2 fold. For the same compound, the “Extreme Browning Rate” value ([2]; 100 μM melatonin, Table 4 (second set)) was 22.2%, the “Extreme Browning Rate” value ([2]; 500 μM melatonin, Table 4) was 21.0% and the “Extreme Browning Rate” value ([2]; 1000 μM melatonin, Table 4) was 50.6%. For the same compound, the Frequency of escapes ([1]; melatonin 10 μM, 4 weeks after selection) was 1.7 ± 0.0%, the “Frequency of independent stable transgenic events” value ([1]; melatonin 10 μM, 4 weeks after selection, Table 5) was 214.4% ± 6.2 A and the Frequency of escapes ([1]; melatonin 50 μM, 4 weeks after selection) was 0.0 ± 0.0%. The “Frequency of independent stable transgenic events” value ([1]; melatonin 50 μM, 4 weeks after selection, Table 5) was 221.3% ± 47.7 A, the Frequency of escapes ([1]; melatonin 100 μM, 4 weeks after selection) was 0.0 ± 0.0% and the “Frequency of independent stable transgenic events” value ([1]; melatonin 100 μM, 4 weeks after selection, Table 5) was 229.4% ± 55.7 A. For the same compound, the “Frequency of independent stable transgenic events” value ([1]; melatonin 100 μM, 4 weeks after selection, Table 6 (second set)) was 213.3% ± 75.4 A, the “Frequency of independent stable transgenic events” value ([1]; melatonin 500 μM, 4 weeks after selection, Table 6) was 121.7% ± 1.7 B and the “Frequency of independent stable transgenic events” value ([1]; melatonin 1000 μM, 4 weeks after selection, Table 6) was 80.0% ± 14.1 B. For the same compound, the “frequency of independent stable transgenic events, increased to” value ([1]; melatonin at 10, 50 and 100 μM, from 88% in negative control without melatonin) was 229%, the Transformation frequency ([3]; melatonin 1 μM in infection and co-cultivation media, glyphosate selection) was 7.6% + and the Transformation frequency ([3]; melatonin 10 μM in infection and co-cultivation media) was 7.5% +. The Transformation frequency ([3]; melatonin 100 μM in infection and co-cultivation media) was 4.5% +, the “% of stable callus sectors” value (rice calli (Nipponbare); melatonin 2 μM in inoculation, transgenic callus after selection, 50 explants) was 148.0% and the “% of stable callus sectors” value (rice calli (Nipponbare); melatonin 10 μM in inoculation, after selection) was 156.0%. For the same compound, the “% of stable callus sectors” value (rice calli (Nipponbare); melatonin 100 μM in inoculation, after selection) was 140.0%, the “% of stable callus sectors” value (rice calli (Nipponbare); melatonin 300 μM in inoculation, after selection) was 140.0% and the “% of stable callus sectors” value (rice calli (Nipponbare); melatonin 1000 μM in inoculation, after selection) was 86.0%.

`Oc1cc(O)c2c(c1)O[C@H](c1ccc(O)c(O)c1)[C@H](O)C2` [Epicatechin, epicatechin] was tested, and the Frequency of escapes [1, 7] was 1.7 ± 2.4%, the “Frequency of independent stable transgenic events” value [1, 7] was 418.3 ± 25.9 B % and the Frequency of escapes [1, 8] was 0.0 ± 0.0%. The “Frequency of independent stable transgenic events” value [1, 8] was 521.7 ± 16.5 A %, the Frequency of escapes ([1]; epicatechin 100 mg/l, 6 weeks after selection, listed as epicatechin) was 0% and the “toxicity to plant tissues (inferred from reduced stable transformation frequency)” value ([1]; epicatechin 1000 mg/l) was “might be toxic to plant tissues at that concentration”. The Frequency of escapes [1, 9] was 1.7 ± 2.4% and the “Frequency of independent stable transgenic events” value [1, 9] was 51.7 ± 2.4 D %.

`Oc1ccc(C=Cc2cc(O)cc(O)c2)cc1` [Resveratrol, resveratrol] was tested, and the Frequency of escapes [1, 10] was 4.4 ± 7.7%, the “Frequency of independent stable transgenic events” value [1, 10] was 297.8 ± 24.6 B % and the “reduction of escapes compared with the negative control” value ([1]; resveratrol 100 μM) was 5 fold. The Frequency of escapes [1, 11] was 1.1 ± 1.9%, the “Frequency of independent stable transgenic events” value [1, 11] was 356.7 ± 10.0 A % and the Frequency of escapes [1, 12] was 1.1 ± 1.9%. For the same compound, the “Frequency of independent stable transgenic events” value [1, 12] was 227.8 ± 17.1 C %.
